# Source: patent EP2607478A1, “Phenanthroline treated MSC” (Universiteit Twente, priority 2011, dated 2013)
# Entries after “also recorded” stand apart in the source; their conditions may differ.
# Test system: MSCs
# Assay: Whole genome expression analysis (Illumina microarray) of treated MSCs
# Format: cell-based, Human
# Procedure: MSCs were seeded in T25 flasks at 5000 cells/cm^2 and allowed to attach overnight in proliferation medium. […] After 48 hours, RNA was isolated as described above. From 500 ng of RNA, cRNA was synthesized using the Illumina TotalPrep RNA amplification Kit (Ambion), according to the manufacturer's protocol and the quality of RNA and cRNA was verified on a Bioanalyzer 2100 (Agilent). Microarrays were performed using Illumina HT-12 v4 expression Beadchips, according to the manufacturer's protocol. Briefly, 750 ng of cRNA was hybridized on the array overnight after which the array was washed and blocked. Then, by addition of streptavidin Cy-3 a fluorescent signal was developed. Arrays were scanned on an Illumina iScan reader and raw intensity values were background corrected in GenomeStudio (Illumina). Further data processing and statistical testing were performed with R and Bioconductor statistical software (www.bioconductor.org), using package lumi. Raw intensity values were transformed using variance stabilization and a quantile normalization was performed. A linear modelling approach with empirical Bayesian methods, as implemented in Limma package (54), was applied for differential expression analysis of the resulting probe-level expression values. A gene list, containing only those genes with an absolute 1.5-fold change between different treatments, was uploaded to Ingenuity Pathway Analysis (IPA) software and used for core analysis. Pathways or networks with a p-value of 0.05 were considered statistically significant.
compound,measurement,setting,value
"c1cnc2c(c1)ccc1cccnc12 [PHE, 1, 10-phenanthroline]",interleukin-8 (Il-8) gene expression,"MSCs treated for two days, 150 µM DFO or 200 µM PHE",highly induced
same,"expression of HRE-containing genes (metabolism, cell growth and survival, endothelial genes)","MSCs treated for two days, 150 µM DFO or 200 µM PHE, relative to basic medium",most genes were strongest induced; also recorded: markedly induced higher expression
same,expression of RelA,PHE compared to hypoxia or DFO-treated cells,higher
same,expression of P300,PHE-treated cells,higher expression
same,logFC(D142_PHE - D142_BAS) BNIP3L,ProbeID ILMN 2045419,"2,33"
same,logFC(D142_PHE - D142_BAS) CYTH2,ProbeID ILMN 3188106,"2,19"
same,logFC(D142_PHE - D142_BAS) HIST1H2BD,ProbeID ILMN_1651496,"3,85"
same,logFC(D142_PHE - D142_BAS) MGP,ProbeID ILMN_1651958,"-2,09"
same,logFC(D142_PHE - D142_BAS) PFKFB4,ProbeID ILMN_1653292,"4,21"
same,logFC(D142_PHE - D142_BAS) HES4,ProbeID ILMN_1653466,"2,11"
same,logFC(D142_PHE - D142_BAS),ProbeID ILMN_1655796,"2,37"
same,logFC(D142_PHE - D142_BAS) ELL2,ProbeID ILMN_1655930,"2,00"
same,logFC(D142_PHE - D142_BAS) PLAU,"ProbeID ILMN_1656057, PHE vs BAS","-3,95"
same,logFC(D142_PHE - D142_BAS) DUSP5,ProbeID ILMN_1656501,"3,07"
same,logFC(D142_PHE - D142_BAS) C1orf198,"ProbeID ILMN_1657683, PHE vs BAS","-2,35"
same,logFC(D142_PHE - D142_BAS) STMN1,ProbeID ILMN_1657796,"-2,32"
same,logFC(D142_PHE - D142_BAS) LOC728946,ProbeID ILMN_1657962,"-2,02"
same,logFC(D142_PHE - D142_BAS) SLC2A1,ProbeID ILMN_1659027,"4,08"
same,logFC(D142_PHE - D142_BAS) HIST2H2AA3,ProbeID ILMN_1659047,"3,78"
same,logFC(D142_PHE - D142_BAS) PPP1R15A,ProbeID ILMN_1659936,"2,65"
same,logFC(D142_PHE - D142_BAS) C7orf68,ProbeID ILMN_1659990,"3,65"
same,logFC(D142_PHE - D142_BAS) CDCA2,ProbeID ILMN_1660654,"2,66"
same,logFC(D142_PHE - D142_BAS) PFKFB3,ProbeID ILMN_1660847,"3,69"
same,logFC(D142_PHE - D142_BAS) LOC648210,ProbeID ILMN_1661346,"-2,02"
same,logFC(D142_PHE - D142_BAS) DDIT4,ProbeID ILMN_1661599,"4,48"
same,logFC(D142_PHE - D142_BAS) TFPI,ProbeID ILMN_1662619,"2,06"
same,logFC(D142_PHE - D142_BAS) CDC20,"ProbeID ILMN_1663390, PHE vs BAS","-2,55"
same,logFC(D142_PHE - D142_BAS) MGC87042,"ProbeID ILMN_1663575, PHE vs BAS","-2,77"
same,logFC(D142_PHE - D142_BAS) PPP1R14C,ProbeID ILMN_1664855,"2,96"
same,logFC(D142_PHE - D142_BAS) ERRFI1,ProbeID ILMN_1665510,"3,36"
same,logFC(D142_PHE - D142_BAS) TNFRSF10D,ProbeID ILMN_1666022,"3,48"
same,logFC(D142_PHE - D142_BAS) CDKN3,"ProbeID ILMN_1666305, PHE vs BAS","-2,37"
same,logFC(D142_PHE - D142_BAS) GCNT1,ProbeID ILMN_1666545,"-2,01"
same,logFC(D142_PHE - D142_BAS) IL8,ProbeID ILMN_1666733,"5,35"
same,logFC(D142_PHE - D142_BAS) PTGIS,ProbeID ILMN_1667692,"-2,11"
same,logFC(D142_PHE - D142_BAS) PPFIA4,ProbeID ILMN_1667791,"2,71"
same,logFC(D142_PHE - D142_BAS) TNS3,"ProbeID ILMN_1667893, PHE vs BAS","-2,61"
same,logFC(D142_PHE - D142_BAS) OAF,ProbeID ILMN_1668345,"-2,06"
same,logFC(D142_PHE - D142_BAS) LOC732165,ProbeID ILMN_1668861,"2,33"
same,logFC(D142_PHE - D142_BAS) LOC728946,"ProbeID ILMN_1669119, PHE vs BAS","-2,56"
same,logFC(D142_PHE - D142_BAS) ILF3,ProbeID ILMN_1669584,"-2,03"
same,logFC(D142_PHE - D142_BAS) CKB,ProbeID ILMN_1671478,"2,73"
same,logFC(D142_PHE - D142_BAS) ACTA2,"ProbeID ILMN_1671703, PHE vs BAS","-3,04"
same,logFC(D142_PHE - D142_BAS) AVPI1,ProbeID ILMN_1671731,"2,16"
same,logFC(D142_PHE - D142_BAS) JAM2,ProbeID ILMN_1672350,"2,37"
same,logFC(D142_PHE - D142_BAS) KISS1R,ProbeID ILMN_1673521,"3,05"
same,logFC(D142_PHE - D142_BAS) TFRC,ProbeID ILMN_1674243,"2,40"
same,logFC(D142_PHE - D142_BAS) ANGPTL4,ProbeID ILMN_1674376,"2,49"
same,logFC(D142_PHE - D142_BAS) MYL9,ProbeID ILMN_1675062,"-2,11"
same,logFC(D142_PHE - D142_BAS) MT3,ProbeID ILMN_1675947,"4,91"
same,logFC(D142_PHE - D142_BAS) MSRB3,"ProbeID ILMN_1676088, PHE vs BAS","-2,43"
same,logFC(D142_PHE - D142_BAS) INSIG2,ProbeID ILMN_1676629,"2,16"
same,logFC(D142_PHE - D142_BAS) TNFRSF11B,"ProbeID ILMN_1676663, PHE vs BAS","-3,04"
same,logFC(D142_PHE - D142_BAS) YEATS2,ProbeID ILMN_1676899,"2,21"
same,logFC(D142_PHE - D142_BAS) PTGS2,ProbeID ILMN_1677511,"2,13"
same,logFC(D142_PHE - D142_BAS) CHN1,"ProbeID ILMN_1678493, PHE vs BAS","-2,73"
same,logFC(D142_PHE - D142_BAS) THBS2,ProbeID ILMN_1678842,"-2,24"
same,logFC(D142_PHE - D142_BAS) SLC3A2,ProbeID ILMN_1679041,"2,15"
same,logFC(D142_PHE - D142_BAS) CLK1,ProbeID ILMN_1679727,"2,72"
same,logFC(D142_PHE - D142_BAS) MAFF,ProbeID ILMN_1680139,"3,87"
same,logFC(D142_PHE - D142_BAS) C5orf13,"ProbeID ILMN_1680738, PHE vs BAS","-2,41"
same,logFC(D142_PHE - D142_BAS) GPRC5A,ProbeID ILMN_1682599,"4,51"
same,logFC(D142_PHE - D142_BAS) IER3,ProbeID ILMN_1682717,"2,62"
same,logFC(D142_PHE - D142_BAS) RRAD,ProbeID ILMN_1683179,"2,75"
same,logFC(D142_PHE - D142_BAS) LOC286016,ProbeID ILMN_1684114,"2,09"
same,logFC(D142_PHE - D142_BAS) GPT2,ProbeID ILMN_1684158,"2,19"
same,logFC(D142_PHE - D142_BAS) COL16A1,ProbeID ILMN_1684554,"-2,06"
same,logFC(D142_PHE - D142_BAS) ASAP3,"ProbeID ILMN_1685441, PHE vs BAS","-2,35"
same,logFC(D142_PHE - D142_BAS) INHBB,ProbeID ILMN_1685714,"3,60"
same,logFC(D142_PHE - D142_BAS) TOP2A,"ProbeID ILMN_1686097, PHE vs BAS","-3,07"
same,logFC(D142_PHE - D142_BAS) THBS1,"ProbeID ILMN_1686116, PHE vs BAS","-3,00"
same,logFC(D142_PHE - D142_BAS) VCAN,"ProbeID ILMN_1687301, PHE vs BAS","-2,38"
same,logFC(D142_PHE - D142_BAS) BAALC,ProbeID ILMN_1687751,"-2,07"
same,logFC(D142_PHE - D142_BAS) COLEC12,"ProbeID ILMN_1689088, PHE vs BAS","-3,75"
same,logFC(D142_PHE - D142_BAS) CXCL12,"ProbeID ILMN_1689111, PHE vs BAS","-3,44"
same,logFC(D142_PHE - D142_BAS) NIPA1,ProbeID ILMN_1689274,"2,08"
same,logFC(D142_PHE - D142_BAS) STAT1,ProbeID ILMN_1690105,"-2,04"
same,logFC(D142_PHE - D142_BAS) PDLIM7,"ProbeID ILMN_1690125, PHE vs BAS","-2,57"
same,logFC(D142_PHE - D142_BAS) STAT2,ProbeID ILMN_1690921,"-2,24"
same,logFC(D142_PHE - D142_BAS) STAT1,"ProbeID ILMN_1691364, PHE vs BAS","-2,77"
same,logFC(D142_PHE - D142_BAS) MYLK,"ProbeID ILMN_1691476, PHE vs BAS","-3,27"
same,logFC(D142_PHE - D142_BAS) STC2,ProbeID ILMN_1691884,"3,81"
same,logFC(D142_PHE - D142_BAS) KLHL21,ProbeID ILMN_1692785,"2,54"
same,logFC(D142_PHE - D142_BAS) PSAT1,ProbeID ILMN_1692938,"2,74"
same,logFC(D142_PHE - D142_BAS) P4HA1,ProbeID ILMN_1693334,"3,46"
same,logFC(D142_PHE - D142_BAS) MAP2K1,ProbeID ILMN_1694240,"2,11"
same,logFC(D142_PHE - D142_BAS) PANX2,ProbeID ILMN_1694810,"2,42"
same,logFC(D142_PHE - D142_BAS) KIF20A,"ProbeID ILMN_1695658, PHE vs BAS","-3,25"
same,logFC(D142_PHE - D142_BAS) DDIT4L,ProbeID ILMN_1696537,"-2,12"
same,logFC(D142_PHE - D142_BAS) VARS,ProbeID ILMN_1696601,"-2,08"
same,logFC(D142_PHE - D142_BAS) TNFRSF10B,ProbeID ILMN_1699265,"2,54"
same,logFC(D142_PHE - D142_BAS),ProbeID ILMN_1699644,"2,20"
